From US20240316136A1, “ANESTHETIC METHOD OF SPOTTED SEABASS WITH PLANT ESSENTIAL OILS” (Shanghai Ocean University, priority 2024, published 2024)
Each block holds one molecule with its values, some of them ahead of it.

Key:
Type in all cases: in vivo, Lateolabrax maculatus
[1] = system: spotted seabass; test: Sedation, anesthesia induction and resuscitation time of spotted seabass in anesthetic bath; design: key to Stage IV (deep anesthesia) time / Resuscitation time / Stage I (light sedation) time / Stage II (deep sedation) time / Stage III (light anesthesia) time: —: No anesthetic effect; details: for Optimal anesthetic concentration: criterion: induction in around 3 min and recovery within 5 min; for Concentration showing deep sedation / Concentration showing light anesthesia effect (Stage III) / Concentration showing light sedation effect (Stage I) / Minimum concentration required to achieve profound anesthesia (Stage IV): in vivo
Description: • 1. Healthy spotted seabass with uniform sizes and uniform respiration rates were selected and acclimated for 24 h. During the acclimatization period, the water temperature was 22±1° C., the salinity was 16%, the dissolved oxygen was 6 mg/L, pH was 7.5, and the fish-water ratio was 1:50. The metabolic wastes of the spotted seabass were discharged during acclimatization period. • 2. The emulsified Cinnamomum camphora essential oils were added to the aquariums respectively. The water temperature was controlled at 22±1° C. […] The spotted seabass were transferred to aquariums (5 fish per aquarium) with different concentrations of the Cinnamomum camphora essential oil, MS-222 and linalool anesthetics, and anesthetic concentrations, sedation concentrations and duration of anesthesia were recorded for the spotted seabass. • 4. The fish were extracted once deep anesthesia was achieved. Recovery was defined as the restoration of fish to their typical swimming behavior; the resuscitation time of the spotted seabass were recorded. • 5. The optimal concentration range was obtained, and oxidative stress and tissue injury were measured. [table] One-way analysis of variance (ANOVA) was used to evaluate the data (anesthetic induction and recovery time) using SPSS 26.0 software (SPSS Inc., Chicago, IL, USA). The significant variation was determined using Duncan's multiple range test (P<0.05). Graphs were created using Origin software.

[2] = system: spotted seabass gill tissue; test: Gill tissue histopathology by light microscope after anesthesia
Description: • 1. Healthy spotted seabass with uniform sizes and uniform respiration rates were selected and acclimated for 24 h. During the acclimatization period, the water temperature was 22±1° C., the salinity was 16%, the dissolved oxygen was 6 mg/L, pH was 7.5, and the fish-water ratio was 1:50. The metabolic wastes of the spotted seabass were discharged during acclimatization period. • 2. The emulsified Cinnamomum camphora essential oils were added to the aquariums respectively. The water temperature was controlled at 22±1° C. The concentrations of the emulsified Cinnamomum camphora essential oil were 10, 20, 30, 50, 100, 150, 200 mg/L, respectively, and the same concentrations of MS-222 anesthesia solution and linalool solution were prepared at the same time. • 3. The spotted seabass were transferred to aquariums (5 fish per aquarium) with different concentrations of the Cinnamomum camphora essential oil, MS-222 and linalool anesthetics, and anesthetic concentrations, sedation concentrations and duration of anesthesia were recorded for the spotted seabass. • 4. The fish were extracted once deep anesthesia was achieved. Recovery was defined as the restoration of fish to their typical swimming behavior; the resuscitation time of the spotted seabass were recorded. • 5. The optimal concentration range was obtained, and oxidative stress and tissue injury were measured. […]

[3] = system: spotted seabass; test: Blood biochemical analysis (RBC, HCT, HGB)
Description: (§1) In accordance with the principles and guiding regulations established by the Animal Protection and Utilization Committee of Shanghai Ocean University (SHOU-DW-2022-059), 200 mg/L MS-222 was used to anesthetize fish. Venous-arterial blood samples were obtained from the caudal vein using a 1 mL syringe with 10% EDTA as an anticoagulant and then preserved in anticoagulation tubes. In addition, another portion of the blood was collected without anticoagulant, then kept at 4° C. for a duration of 12 hours for stationary. The coagulated blood was centrifuged at 4000×g for 20 min at 4° C. The serum was extracted and placed in the refrigerator at −40° C. for testing.
Red blood cell count (RBC), haematocrit (HCT), and hemoglobin (HGB) in blood samples were measured in a Myriad Veterinary Automatic Blood Cell Analyser (BC-2800vet, Shenzhen, China).

[4] = system: spotted seabass; test: Energy metabolism indexes (glucose, lactic acid); details: P<0.05
Description: as §1
(§2) Acid phosphatase (ACP), glucose (GLU) and lactic acid (LD) kits (Nanjing Jiancheng Bioengineering Institute, Nanjing, China) were used to measure ACP, GLU and LD levels.

[5] = system: spotted seabass; test: Oxidative stress indicators (SOD, CAT, GSH-Px) in blood; details: for SOD, CAT and GSH-Px activities: after anesthesia
Description: as §1
Superoxide Dismutase (SOD), Catalase (CAT) and Glutathione Peroxidase (GSH-Px) kits (Nanjing Jiancheng Bioengineering Institute, Nanjing, China) were used to determine SOD, CAT and GSH-Px activities in blood.

[6] = system: spotted seabass; test: Immunological indicators (ACP/AKP, IgM, LZM) in serum; details: for AKP activity: on exposure to anesthetic
Description: as §1, §2
Lysozyme (LZM) activity was determined by the method of De Souza et al. Serum immunoglobulin M (IgM) concentration was measured using a fish ELISA kit (Nanjing Jiancheng Bioengineering Institute, Nanjing, China).

[7] = 100 mg/L in water, listed as linalool
[8] = after deep anesthesia, comparison between anesthetic groups, p<0.05
[9] = after 24 h of recovery, vs MS-222 and Cinnamomum camphora essential oil
[10] = after anesthesia, comparison between anesthetic groups
[11] = after 24 h of recovery, vs initial
[12] = after anesthesia, change from initial
[13] = after 24 h of recovery, vs initial values, p<0.05

Gill tissue histopathological changes [2]: swollen lamellar epithelium
Percentage of hematocrit [3, 8]: lower
Glucose concentration [4, 9]: higher
Lactic acid concentration [4, 9]: lower
Glucose concentration [4, 10]: Greater
Lactic acid level ([4]; after anesthesia, vs MS-222 and Cinnamomum camphora essential oil): greater
GSH-Px activity [5, 11]: still higher than the initial levels
SOD activity [5, 11]: still higher than the initial levels
SOD, CAT and GSH-Px activities [5]: increasing trend
IgM concentration ([6]; after anesthesia): decreased
LZM activity [6, 12]: increased
LZM activity ([6]; after anesthesia, comparison between anesthetic groups, P<0.05): higher
ACP activity ([6]; after anesthesia, vs MS-222 and Cinnamomum camphora essential oil, P<0.05): higher
AKP activity [6]: increased
SMILES: C=CC(C)(O)CCC=C(C)C (stereo not drawn) [Linalool, 1,6-Octadien-3-ol,3,7-dimethyl]
Resuscitation time ([1]; 5 mg/L in water): —
Stage I (light sedation) time ([1]; 5 mg/L in water): —
Stage II (deep sedation) time ([1]; 5 mg/L in water): —
Stage III (light anesthesia) time ([1]; 5 mg/L in water): —
Stage IV (deep anesthesia) time ([1]; 5 mg/L in water): —
Resuscitation time ([1]; 10 mg/L in water): —
Stage I (light sedation) time ([1]; 10 mg/L in water): 88.67 ± 3.21 s
Stage II (deep sedation) time ([1]; 10 mg/L in water): —
Stage III (light anesthesia) time ([1]; 10 mg/L in water): —
Stage IV (deep anesthesia) time ([1]; 10 mg/L in water): —
Resuscitation time ([1]; 20 mg/L in water): —
Stage I (light sedation) time ([1]; 20 mg/L in water): 70.00 ± 3.00 s
Stage II (deep sedation) time ([1]; 20 mg/L in water): 97.00 ± 4.58 s
Stage III (light anesthesia) time ([1]; 20 mg/L in water): —
Stage IV (deep anesthesia) time ([1]; 20 mg/L in water): —
Resuscitation time ([1]; 30 mg/L in water): —
Stage I (light sedation) time ([1]; 30 mg/L in water): 60.00 ± 3.00 s
Stage II (deep sedation) time ([1]; 30 mg/L in water): 84.67 ± 3.51 s
Stage III (light anesthesia) time ([1]; 30 mg/L in water): 103.33 ± 3.51 s
Stage IV (deep anesthesia) time ([1]; 30 mg/L in water): —
Resuscitation time ([1]; 50 mg/L in water): 235.00 ± 2.00 s
Stage I (light sedation) time ([1]; 50 mg/L in water): 42.67 ± 3.51 s
Stage III (light anesthesia) time ([1]; 50 mg/L in water): 115.00 ± 4.00 s
Stage IV (deep anesthesia) time ([1]; 50 mg/L in water): 323.33 ± 2.52 s
Resuscitation time ([1]; 100 mg/L in water): 255.33 ± 2.08 s
Stage I (light sedation) time ([1]; 100 mg/L in water): 31.67 ± 1.15 s
Stage III (light anesthesia) time ([1]; 100 mg/L in water): 103.67 ± 2.52 s
Stage IV (deep anesthesia) time ([1]; 100 mg/L in water): 213.00 ± 1.73 s
Resuscitation time [1, 7]: 344.00 s
Stage IV (deep anesthesia) time [1, 7]: 155.33 s
Resuscitation time ([1]; 150 mg/L in water): 270.00 ± 3.00 s
Stage I (light sedation) time ([1]; 150 mg/L in water): 22.33 ± 2.52 s
Stage II (deep sedation) time ([1]; 150 mg/L in water): 44.00 ± 2.65 s
Stage III (light anesthesia) time ([1]; 150 mg/L in water): 91.67 ± 1.53 s
Stage IV (deep anesthesia) time ([1]; 150 mg/L in water): 155.33 ± 3.51 s
Resuscitation time ([1]; 200 mg/L in water): 310.00 ± 3.00 s
Stage I (light sedation) time ([1]; 200 mg/L in water): 16.00 ± 1.00 s
Stage II (deep sedation) time ([1]; 200 mg/L in water): 37.00 ± 1.73 s
Stage III (light anesthesia) time ([1]; 200 mg/L in water): 86.00 ± 2.65 s
Stage IV (deep anesthesia) time ([1]; 200 mg/L in water): 141.00 ± 5.29 s
Optimal anesthetic concentration [1]: 100 mg/L
Concentration showing deep sedation [1]: 20 mg/L
Concentration showing light anesthesia effect (Stage III) [1]: 30 mg/L
Concentration showing light sedation effect (Stage I) [1]: 10 mg/L
Minimum concentration required to achieve profound anesthesia (Stage IV) [1]: 50 mg/L

Percentage of hematocrit [3, 13]: lower
Red blood cell count (RBC) [3, 13]: higher
Percentage of hematocrit [3, 8]: higher
Hemoglobin concentration ([3]; in vivo): higher
Red blood cell count (RBC) ([3]; in vivo): higher
Glucose concentration [4, 10]: Greater
CAT activity [5, 11]: recovered to the initial values
SOD activity [5, 11]: recovered to the initial values
SOD, CAT and GSH-Px activities [5]: increasing trend
IgM concentration ([6]; after anesthesia): decreased
LZM activity [6, 12]: decreased
AKP activity [6]: increased
SMILES: CCOC(=O)c1cccc(N)c1.CS(=O)(=O)O [MS-222, tricaine methanesulfonate]
Resuscitation time ([1]; 5 mg/L in water): —
Stage I (light sedation) time ([1]; 5 mg/L in water): —
Stage II (deep sedation) time ([1]; 5 mg/L in water): —
Stage III (light anesthesia) time ([1]; 5 mg/L in water): —
Stage IV (deep anesthesia) time ([1]; 5 mg/L in water): —
Resuscitation time ([1]; 10 mg/L in water): —
Stage I (light sedation) time ([1]; 10 mg/L in water): 90.67 ± 2.08 s
Stage II (deep sedation) time ([1]; 10 mg/L in water): —
Stage III (light anesthesia) time ([1]; 10 mg/L in water): —
Stage IV (deep anesthesia) time ([1]; 10 mg/L in water): —
Resuscitation time ([1]; 20 mg/L in water): —
Stage I (light sedation) time ([1]; 20 mg/L in water): 73.67 ± 5.86 s
Stage II (deep sedation) time ([1]; 20 mg/L in water): 111.67 ± 2.08 s
Stage III (light anesthesia) time ([1]; 20 mg/L in water): —
Stage IV (deep anesthesia) time ([1]; 20 mg/L in water): —
Resuscitation time ([1]; 30 mg/L in water): —
Stage I (light sedation) time ([1]; 30 mg/L in water): 59.00 ± 3.00 s
Stage II (deep sedation) time ([1]; 30 mg/L in water): 102.33 ± 2.52 s
Stage III (light anesthesia) time ([1]; 30 mg/L in water): 122.67 ± 2.52 s
Stage IV (deep anesthesia) time ([1]; 30 mg/L in water): —
Resuscitation time ([1]; 50 mg/L in water): 217.00 ± 2.00 s
Stage I (light sedation) time ([1]; 50 mg/L in water): 39.67 ± 2.52 s
Stage II (deep sedation) time ([1]; 50 mg/L in water): 64.00 ± 3.61 s
Stage III (light anesthesia) time ([1]; 50 mg/L in water): 83.00 ± 3.00 s
Stage IV (deep anesthesia) time ([1]; 50 mg/L in water): 185.00 ± 4.36 s
Resuscitation time ([1]; 100 mg/L in water): 240.00 ± 2.00 s
Stage I (light sedation) time ([1]; 100 mg/L in water): 30.00 ± 3.00 s
Stage II (deep sedation) time ([1]; 100 mg/L in water): 41.00 ± 4.58 s
Stage III (light anesthesia) time ([1]; 100 mg/L in water): 70.67 ± 4.04 s
Stage IV (deep anesthesia) time ([1]; 100 mg/L in water): 174.00 ± 4.58 s
Resuscitation time ([1]; 150 mg/L in water): 290.33 ± 3.06 s
Stage I (light sedation) time ([1]; 150 mg/L in water): 20.67 ± 2.52 s
Stage II (deep sedation) time ([1]; 150 mg/L in water): 35.00 ± 2.00 s
Stage III (light anesthesia) time ([1]; 150 mg/L in water): 63.00 ± 3.61 s
Stage IV (deep anesthesia) time ([1]; 150 mg/L in water): 147.67 ± 2.52 s
Resuscitation time ([1]; 200 mg/L in water): 349.33 ± 3.06 s
Stage I (light sedation) time ([1]; 200 mg/L in water): 19.67 ± 2.52 s
Stage II (deep sedation) time ([1]; 200 mg/L in water): 29.67 ± 2.52 s
Stage III (light anesthesia) time ([1]; 200 mg/L in water): 55.33 ± 2.08 s
Stage IV (deep anesthesia) time ([1]; 200 mg/L in water): 140.33 ± 2.08 s
Optimal anesthetic concentration [1]: 100 mg/L
Concentration showing deep sedation [1]: 20 mg/L
Concentration showing light anesthesia effect (Stage III) [1]: 30 mg/L
Concentration showing light sedation effect (Stage I) [1]: 10 mg/L
Minimum concentration required to achieve profound anesthesia (Stage IV) [1]: 50 mg/L
Gill tissue histopathological changes [2]: chloride cells underwent significant proliferation
